Calls of active or inactive are those of the source.
What was measured:
Assay type in all cases: functional
[1] = target: Dual specificity mitogen-activated protein kinase kinase 1 (Homo sapiens, UniProt Q02750); assay: Navigating the Kinome. Panel member name: MAP2K1
[2] = target: Tyrosine-protein kinase JAK2 (Homo sapiens, UniProt O60674);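 note: JAK2 tested as one member of a kinase panel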
[3] = target: 5'-AMP-activated protein kinase catalytic subunit alpha-1 (Homo sapiens, UniProt Q13131)
[4] = target: ALK tyrosine kinase receptor (Homo sapiens, UniProt Q9UM73);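 note: ALK tested as one member of a kinase panel screen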
[5] = target: Proto-oncogene tyrosine-protein kinase receptor Ret (Homo sapiens, UniProt P07949);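 note: measured within a kinome-wide profiling panel, RET as the panel member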
[6] = target: Tyrosine-protein kinase receptor TYRO3 (Homo sapiens, UniProt Q06418);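 note: TYRO3 value obtained as one member of a kinome-wide profiling panel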
[7] = target: Mitogen-activated protein kinase 8 (Homo sapiens, UniProt P45983);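 note: value comes from one member of a kinome-wide kinase profiling panel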
[8] = target: Serine/threonine-protein kinase pim-1 (Homo sapiens, UniProt P11309)
Aurora kinase A = Aurora kinase A (Homo sapiens, UniProt O14965);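 note: value from the Navigating the Kinome kinase panel profiling, panel entry STK6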
[9] = target: Fibroblast growth factor receptor 1 (Homo sapiens, UniProt P11362)
[10] = target: Tyrosine-protein kinase JAK3 (Homo sapiens, UniProt P52333)
LIM domain kinase 1 = LIM domain kinase 1 (Homo sapiens, UniProt P53667); assay: Navigating the Kinome. Panel member name: LIMK1
[11] = target: Serine/threonine-protein kinase TAO1 (Homo sapiens, UniProt Q7L7X3)
Sequence of Serine/threonine-protein kinase TAO1 (Q7L7X3 whole entry): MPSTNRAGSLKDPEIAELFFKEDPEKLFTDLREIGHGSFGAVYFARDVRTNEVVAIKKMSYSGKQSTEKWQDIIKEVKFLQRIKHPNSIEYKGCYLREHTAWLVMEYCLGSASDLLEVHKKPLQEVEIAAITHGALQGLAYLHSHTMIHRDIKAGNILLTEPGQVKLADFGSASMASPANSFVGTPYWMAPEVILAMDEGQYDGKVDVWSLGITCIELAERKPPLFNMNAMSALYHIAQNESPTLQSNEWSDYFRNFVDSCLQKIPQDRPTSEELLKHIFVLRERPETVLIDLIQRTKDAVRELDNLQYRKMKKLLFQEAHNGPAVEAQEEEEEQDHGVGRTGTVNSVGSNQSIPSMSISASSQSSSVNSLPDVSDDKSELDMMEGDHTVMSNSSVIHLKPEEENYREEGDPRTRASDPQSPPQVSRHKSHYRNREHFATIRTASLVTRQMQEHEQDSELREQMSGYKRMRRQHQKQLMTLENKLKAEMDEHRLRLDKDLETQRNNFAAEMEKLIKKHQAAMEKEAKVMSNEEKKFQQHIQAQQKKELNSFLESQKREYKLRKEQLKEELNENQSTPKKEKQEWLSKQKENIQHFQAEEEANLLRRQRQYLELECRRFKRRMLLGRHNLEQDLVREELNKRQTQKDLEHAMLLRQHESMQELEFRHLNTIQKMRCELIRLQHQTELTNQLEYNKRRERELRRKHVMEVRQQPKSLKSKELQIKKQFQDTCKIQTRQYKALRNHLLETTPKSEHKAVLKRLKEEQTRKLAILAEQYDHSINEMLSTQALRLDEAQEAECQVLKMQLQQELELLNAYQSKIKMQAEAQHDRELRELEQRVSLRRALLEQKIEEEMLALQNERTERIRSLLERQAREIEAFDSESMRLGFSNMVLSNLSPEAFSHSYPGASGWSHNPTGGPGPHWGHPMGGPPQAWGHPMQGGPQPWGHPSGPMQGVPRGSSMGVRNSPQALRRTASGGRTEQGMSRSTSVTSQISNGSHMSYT

[12] = target: Hepatocyte growth factor receptor (Homo sapiens, UniProt P08581);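 note: kinase panel profiling across the kinome, with MET as the panel member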
Activated CDC42 kinase 1 = Activated CDC42 kinase 1 (Homo sapiens, UniProt Q07912); assay: Navigating the Kinome. Panel member name: ACK1
[13] = target: Platelet-derived growth factor receptor beta (Homo sapiens, UniProt P09619);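 note: value comes from a kinome panel, with PDGFRB tested as one panel member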
[14] = target: Receptor-type tyrosine-protein kinase FLT3 (Homo sapiens, UniProt P36888);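 note: FLT3 was tested as one member of a kinome-wide kinase panel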
[15] = target: Serine/threonine-protein kinase Chk1 (Homo sapiens, UniProt O14757);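 note: measured as one member of a kinome-wide kinase profiling panel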
Sequence of Serine/threonine-protein kinase Chk1 (O14757 whole entry): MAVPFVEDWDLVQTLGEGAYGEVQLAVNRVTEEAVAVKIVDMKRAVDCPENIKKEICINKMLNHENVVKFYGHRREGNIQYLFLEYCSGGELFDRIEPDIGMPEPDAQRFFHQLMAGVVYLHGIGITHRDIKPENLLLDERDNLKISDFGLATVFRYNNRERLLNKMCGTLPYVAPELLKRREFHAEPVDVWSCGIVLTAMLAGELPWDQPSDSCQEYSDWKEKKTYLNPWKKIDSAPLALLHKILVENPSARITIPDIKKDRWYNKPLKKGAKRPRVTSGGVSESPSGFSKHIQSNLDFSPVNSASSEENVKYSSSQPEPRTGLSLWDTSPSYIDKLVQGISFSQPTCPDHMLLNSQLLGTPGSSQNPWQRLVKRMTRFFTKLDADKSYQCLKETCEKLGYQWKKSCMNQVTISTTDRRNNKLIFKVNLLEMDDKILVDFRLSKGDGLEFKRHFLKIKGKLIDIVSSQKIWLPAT

[16] = target: Dual specificity tyrosine-phosphorylation-regulated kinase 1B (Homo sapiens, UniProt Q9Y463); assay: Navigating the Kinome. Panel member name: DYRK1B
Focal adhesion kinase 1 = Focal adhesion kinase 1 (Homo sapiens, UniProt Q05397);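 note: measured as one member of a kinome panel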
Sequence of Focal adhesion kinase 1 (Q05397 whole entry): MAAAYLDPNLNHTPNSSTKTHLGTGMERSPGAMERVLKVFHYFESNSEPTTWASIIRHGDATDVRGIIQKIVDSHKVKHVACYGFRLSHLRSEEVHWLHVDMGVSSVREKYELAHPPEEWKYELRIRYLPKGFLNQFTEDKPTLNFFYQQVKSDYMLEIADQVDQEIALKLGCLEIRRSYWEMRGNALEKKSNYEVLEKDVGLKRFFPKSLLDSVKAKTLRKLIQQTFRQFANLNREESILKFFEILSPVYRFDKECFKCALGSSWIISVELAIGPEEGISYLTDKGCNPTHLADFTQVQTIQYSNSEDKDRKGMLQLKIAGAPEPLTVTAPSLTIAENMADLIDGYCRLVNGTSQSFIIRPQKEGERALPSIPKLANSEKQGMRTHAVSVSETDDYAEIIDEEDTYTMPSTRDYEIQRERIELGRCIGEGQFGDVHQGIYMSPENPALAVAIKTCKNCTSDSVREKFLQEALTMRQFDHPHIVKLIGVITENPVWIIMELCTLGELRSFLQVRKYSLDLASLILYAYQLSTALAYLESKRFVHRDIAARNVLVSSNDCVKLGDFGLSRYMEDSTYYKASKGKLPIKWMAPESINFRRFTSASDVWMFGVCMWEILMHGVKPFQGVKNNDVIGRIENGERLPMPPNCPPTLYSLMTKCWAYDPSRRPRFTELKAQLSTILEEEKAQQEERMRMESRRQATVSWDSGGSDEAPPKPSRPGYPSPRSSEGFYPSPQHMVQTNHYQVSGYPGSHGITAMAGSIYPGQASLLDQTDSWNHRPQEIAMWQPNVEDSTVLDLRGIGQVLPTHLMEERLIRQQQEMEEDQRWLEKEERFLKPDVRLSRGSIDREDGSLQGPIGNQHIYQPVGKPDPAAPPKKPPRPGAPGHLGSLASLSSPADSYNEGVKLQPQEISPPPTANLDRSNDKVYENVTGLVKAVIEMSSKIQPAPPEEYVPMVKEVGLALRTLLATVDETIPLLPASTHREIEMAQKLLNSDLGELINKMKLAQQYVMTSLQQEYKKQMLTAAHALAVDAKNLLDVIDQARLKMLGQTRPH

[17] = target: Cyclin-dependent kinase 8 (Homo sapiens, UniProt P49336); assay: Navigating the Kinome. Panel member name: CDK8
Sequence of Cyclin-dependent kinase 8 (P49336 whole entry): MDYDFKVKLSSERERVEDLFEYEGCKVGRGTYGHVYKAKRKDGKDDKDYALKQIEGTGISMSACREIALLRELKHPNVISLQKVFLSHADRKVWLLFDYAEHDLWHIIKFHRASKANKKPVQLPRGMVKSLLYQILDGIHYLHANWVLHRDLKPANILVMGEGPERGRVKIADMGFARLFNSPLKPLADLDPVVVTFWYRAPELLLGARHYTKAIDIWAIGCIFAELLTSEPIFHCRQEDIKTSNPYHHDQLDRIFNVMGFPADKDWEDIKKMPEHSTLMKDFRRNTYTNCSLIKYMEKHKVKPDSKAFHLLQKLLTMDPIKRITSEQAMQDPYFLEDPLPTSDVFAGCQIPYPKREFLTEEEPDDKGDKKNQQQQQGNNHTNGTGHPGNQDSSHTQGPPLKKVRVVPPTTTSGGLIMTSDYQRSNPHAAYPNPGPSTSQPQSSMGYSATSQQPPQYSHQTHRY

[18] = target: Cyclin-dependent kinase 7 (Homo sapiens, UniProt P50613);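 note: value comes from a kinome-wide kinase profiling panel in which CDK7 is one member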
[19] = target: Vascular endothelial growth factor receptor 1 (Homo sapiens, UniProt P17948);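 note: measured within a kinome-wide profiling panel, FLT1 as the panel member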
[20] = target: Glycogen synthase kinase-3 beta (Homo sapiens, UniProt P49841);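 note: value comes from a broad kinome profiling panel, with GSK3B as the panel member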
[21] = target: Cyclin-dependent kinase 9 (Homo sapiens, UniProt P50750);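 note: value from the CDK9 entry of a kinome-spanning kinase panel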
[22] = target: cAMP-dependent protein kinase catalytic subunit alpha (Homo sapiens, UniProt P17612)
[23] = target: Dual specificity protein kinase CLK4 (Homo sapiens, UniProt Q9HAZ1)
Sequence of Dual specificity protein kinase CLK4 (Q9HAZ1 whole entry): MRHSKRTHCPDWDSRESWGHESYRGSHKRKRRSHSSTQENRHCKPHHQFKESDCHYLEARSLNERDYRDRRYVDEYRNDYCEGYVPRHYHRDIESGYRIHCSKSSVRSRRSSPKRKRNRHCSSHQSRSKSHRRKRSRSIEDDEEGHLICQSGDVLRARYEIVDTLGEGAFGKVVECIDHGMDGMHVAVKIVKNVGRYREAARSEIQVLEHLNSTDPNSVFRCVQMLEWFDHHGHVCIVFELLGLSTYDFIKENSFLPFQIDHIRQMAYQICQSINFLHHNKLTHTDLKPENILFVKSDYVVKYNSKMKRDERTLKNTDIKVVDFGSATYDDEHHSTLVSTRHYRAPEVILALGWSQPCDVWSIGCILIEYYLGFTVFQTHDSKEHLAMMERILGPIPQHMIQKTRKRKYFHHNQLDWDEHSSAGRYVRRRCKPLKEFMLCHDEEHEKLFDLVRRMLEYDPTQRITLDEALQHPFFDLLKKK

[24] = target: Macrophage-stimulating protein receptor (Homo sapiens, UniProt Q04912); assay: Navigating the Kinome. Panel member name: MST1R
Sequence of Macrophage-stimulating protein receptor (Q04912 25-304 limits assumed): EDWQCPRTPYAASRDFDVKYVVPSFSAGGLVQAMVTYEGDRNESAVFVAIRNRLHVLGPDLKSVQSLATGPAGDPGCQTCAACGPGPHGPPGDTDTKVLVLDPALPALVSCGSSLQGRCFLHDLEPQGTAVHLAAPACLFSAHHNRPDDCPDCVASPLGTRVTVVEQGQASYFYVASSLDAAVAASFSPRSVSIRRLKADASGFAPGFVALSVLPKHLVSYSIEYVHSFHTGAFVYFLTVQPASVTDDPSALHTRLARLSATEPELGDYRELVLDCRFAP
Sequence of Macrophage-stimulating protein receptor (Q04912 310-1400 limits assumed): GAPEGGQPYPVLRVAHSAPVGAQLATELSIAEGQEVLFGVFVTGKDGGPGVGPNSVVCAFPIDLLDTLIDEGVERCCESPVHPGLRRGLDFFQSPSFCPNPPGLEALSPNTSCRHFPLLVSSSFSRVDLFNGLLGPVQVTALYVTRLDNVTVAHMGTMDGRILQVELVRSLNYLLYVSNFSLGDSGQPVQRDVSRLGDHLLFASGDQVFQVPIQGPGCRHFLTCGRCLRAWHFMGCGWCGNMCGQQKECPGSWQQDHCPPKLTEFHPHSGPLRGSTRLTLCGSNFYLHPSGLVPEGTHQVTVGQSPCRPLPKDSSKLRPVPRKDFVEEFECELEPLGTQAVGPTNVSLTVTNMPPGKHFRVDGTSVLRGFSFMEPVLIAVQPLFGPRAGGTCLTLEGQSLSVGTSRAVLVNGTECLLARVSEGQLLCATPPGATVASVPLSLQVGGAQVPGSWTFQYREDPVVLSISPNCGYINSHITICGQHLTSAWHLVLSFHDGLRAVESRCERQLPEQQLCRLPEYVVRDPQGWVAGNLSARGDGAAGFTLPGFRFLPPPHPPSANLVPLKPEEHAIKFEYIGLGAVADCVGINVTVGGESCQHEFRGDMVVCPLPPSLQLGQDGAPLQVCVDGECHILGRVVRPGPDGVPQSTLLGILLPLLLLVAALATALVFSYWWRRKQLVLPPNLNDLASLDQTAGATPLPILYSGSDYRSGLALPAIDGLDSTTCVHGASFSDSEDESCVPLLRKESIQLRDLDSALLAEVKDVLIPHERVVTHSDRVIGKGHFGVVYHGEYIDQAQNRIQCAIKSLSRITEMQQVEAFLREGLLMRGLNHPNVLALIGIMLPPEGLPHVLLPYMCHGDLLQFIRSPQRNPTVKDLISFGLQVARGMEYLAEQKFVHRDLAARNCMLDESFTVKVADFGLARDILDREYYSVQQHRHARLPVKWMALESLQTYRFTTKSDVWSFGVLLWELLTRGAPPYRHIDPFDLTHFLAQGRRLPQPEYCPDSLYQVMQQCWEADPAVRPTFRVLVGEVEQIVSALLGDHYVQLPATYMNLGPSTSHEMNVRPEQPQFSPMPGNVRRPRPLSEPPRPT

[25] = target: Macrophage colony-stimulating factor 1 receptor (Homo sapiens, UniProt P07333);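 note: value comes from the Navigating the Kinome screening panel, CSF1R member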
[26] = target: Dual specificity mitogen-activated protein kinase kinase 2 (Homo sapiens, UniProt P36507); assay: Navigating the Kinome. Panel member name: MAP2K2
[27] = target: Dual specificity tyrosine-phosphorylation-regulated kinase 1A (Homo sapiens, UniProt Q13627);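 note: measured against DYRK1A as one member of a broad kinome profiling panel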
[28] = target: Calcium/calmodulin-dependent protein kinase type II subunit alpha (Homo sapiens, UniProt Q9UQM7); assay: Navigating the Kinome. Panel member name: CAMK2A
[29] = target: Leukocyte tyrosine kinase receptor (Homo sapiens, UniProt P29376); assay: Navigating the Kinome. Panel member name: LTK

Measured: Ki

CC(=O)Nc1ccc(-n2nc3ccc(N)nc3n2)cc1
active: [1] 2.51 µM | [2] 2 µM | [3] 1.26 µM | [4] 2 µM | [5] 1.58 µM | [6] 1.26 µM | [7] 2.51 µM | [8] 3.98 µM | Aurora kinase A 1.58 µM | [9] 1.26 µM | [10] 2 µM | LIM domain kinase 1 1.26 µM | [11] 5.01 µM | [12] 1 µM | Activated CDC42 kinase 1 1 µM | [13] 2 µM | [14] 2 µM | [15] 794 nM | [16] 1.26 µM | Focal adhesion kinase 1 5.01 µM | [17] 2.51 µM | [18] 2.51 µM | [19] 2.51 µM | [20] 1.26 µM | [21] 1 µM | [22] 1.26 µM | [23] 794 nM | [24] 2.51 µM | [25] 2 µM | [26] 1.58 µM | [27] 1 µM | [28] 1.26 µM | [29] 794 nM

— ChEMBL document CHEMBL1201862, “PubChem BioAssay data set” (2004)
